“Also recorded” adds a separate entry of the source.
Legend:
[1] = Stability in simulated gastric fluid (SGF), pH 1.2; type: in vitro ADME; conditions: pH 1.2, 37° C.
Method: GI: Stability in simulated gastric fluid (USP, 37° C.)
(§1) HPLC analysis was carried out on an Agilent 1200 Infinity Series Quatpump, equipped with a photodiode array detector and a computer integrating apparatus. An Inertsil ODS-3 column, C18, 5 μm, 4.6×50 mm (GL Science Inc. Japan) protected with a guard column: Alltima C18, 5 μm, 4.6×7.5 mm (Grace Discovery Sciences, IL, USA) was used as the stationary phase. An isocratic method with a mobile phase consisting of water/acetonitrile (70:30) containing 0.05% formic acid in each was used. A flow rate of 0.9 mL/min was used and detection was carried out at a UV wavelength of 250 nm.
To formulate 1 mg/mL of II-38 in SGF, 3.1 mg of II-38 was dissolved in 0.155 mL of DMSO (i.e. 5%) and added slowly and gradually to a total volume of 2.945 mL of preheated SGF (Table 3) in a cell diffusion chamber preheated to 37° C. The solution was mixed for 30 sec. every half an hour using magnetic stirrer. Samples of 20 μL (20 μg/mL of II-38) were collected at 0, 1, 2, 4, 6 and 8 h. Each sample was mixed with acetonitrile QS to 1 mL, vortex-mixed for 30 sec and centrifuged at 10,000 rpm at room temp. A volume of 10 μL of the supernatant was injected into the HPLC spectrometer.

[2] = Stability of II-38 in phosphate buffer, pH 7.4; type: physicochemical; conditions: pH 7.4, 37° C., 5% DMSO, within 8 h
Method: pH: Stability in aqueous buffers (37° C., pHs 1.2 and 7.4)
as §1
Formulation of II-38 in phosphate buffer (PB): to formulate 1 mg/mL of II-38 in PB, 2.6 mg of II-38 was formulated in 0.13 mL of DMSO (i.e. 5%) and added slowly and gradually to a total volume of 2.47 mL of preheated PB (Table 2) in a Franz cell diffusion chamber preheated to 37° C. The solution was mixed for 30 sec every half an hour using magnetic stirrer. Samples of 20 μL (20 ug/mL of II-38) were collected at 0, 0.5, 1, 2, 4, 6 and 8 h. Each sample was mixed with acetonitrile QS to 1 mL, vortex-mixed for 30 sec and centrifuged at 10,000 rpm at room temp. A volume of 10 μL of the supernatant was injected into the HPLC spectrometer.

[3] = Stability in human plasma; type: in vitro ADME; conditions: 80% human plasma, 37° C.
Method: Plasma: Stability in rat and human plasma (37° C.)
as §1
Formulation of II-38 in human plasma: to prepare 1 mg/mL of II-38, 2.3 mg of II-38 was formulated in DMSO (5%) and added slowly and gradually to a total volume of 2.185 mL of premixed human plasma (80%+PBS 15%, see Table 6) in a Franz cell diffusion chamber preheated to 37° C. The solution was mixed for a min every half an hour using magnetic stirrer. Samples of 20 μL (20 μg/mL of II-38) were collected at 0, 0.5, 1, 2, 4, 6 and 8 h. Each sample was mixed with acetonitrile QS to 1 mL, vortex-mixed for 30 sec and centrifuged at 10,000 rpm at room temp. A volume of 10 μL of the supernatant was injected into the HPLC spectrometer.

[4] = Stability in simulated intestinal fluid (SIF), pH 6.8; type: in vitro ADME; conditions: pH 6.8, 37° C.
Method: GI: Stability in simulated intestinal fluid (USP, 37° C.)
as §1
Formulation of II-38 in SIF buffer, pH 6.8: to formulate 1 mg/mL of II-38 in SIF, 2.6 mg of II-38 was dissolved in 0.13 mL of DMSO (i.e. 5%) and titrated slowly and gradually to a total volume of 2.47 mL of preheated SIF (Table 4) in a cell diffusion chamber preheated to 37° C. The solution was mixed for 30 sec every half an hour using magnetic stirrer. Samples of 20 μL (20 μg/mL of II-38) were collected at 0, 0.5, 1, 2, 4, 6 and 8 h (FIGS. 12A and 12B). Each sample was mixed with acetonitrile QS to 1 mL, vortex-mixed for 30 sec and centrifuged at 10,000 rpm at room temp. A volume of 10 μL of the supernatant was injected into the HPLC spectrometer (FIG. 11).

cerebral infarct = conditions: treatment 3-hours post-ischemia; cited from earlier work
wildtype mice = test: Lifespan of chronically treated wildtype mice; type: in vivo; conditions: wildtype mice chronically treated with an extraordinarily low dose
Source text: (§2) Overt reactive oxygen species (ROSs) can be produced due to noise and certain ototoxic drugs that can damage the hair cells of the ear, resulting in either temporary or permanent hearing loss. Exposure to blast waves and continuous noise not only damaged the inner ear, but caused cell death in the hippocampus, suppressed neurogenesis and impaired memory function. Aging as well can manifest in mitochondrial dysfunction leading to hearing loss. It is emerging that attempts to treat hearing loss by targeting downstream issues is not very effective. In one embodiment, the compositions and methods of the invention relate to targeting oxidative stress upstream at the mitochondria that may be causative for many disorders. There have been a variety of attempts to lower cellular stress, such as administering anti-oxidants, however these drugs have limited tissue penetration into the brain and lower ROSs after they have been formed. […] While not being bound to theory, it is postulated that DNP modulates the mitochondrial membrane potential having a significant impact at preventing ROS formation in isolated mitochondria and in the treated wildtype mice. DNP treatment 3-hours post-ischemia reduced cerebral infarct volume 40% by protecting the penumbra or “threaten tissue” and could provide similar benefits after a blast to protect inner hair cells from eminent cell death. […]

ion channels = test: Inhibition of ion channels
Source text: as §2

28-day toxicity studies = type: in vivo; conditions: low doses
Source text: as §2

[5] = in rats, general statement; cited from earlier work
CYP = test: Inhibition of CYP; type: in vitro ADME
Source text: as §2

[6] = tested on: mouse model of Alzheimer's disease; test: Alzheimer's disease mouse model, Morris Water Maze; type: in vivo; conditions: chronic treatment
Source text: In one embodiment, the invention provides compositions and methods for treating neurodegenerative diseases such as Alzheimer's disease, Parkinson, and Huntington's disease. It is believed that the complete lack of historic success is due to most pharmaceutical industries focusing on a downstream event, such as plaques/tangles, whereas the issue is likely upstream at the mitochondria causing high cellular stress.

SMILES | stability in SGF [1] | hydrolysis / stability in phosphate buffer [2] | hydrolysis in human plasma [3] | stability in SIF [4] | reduction of cerebral infarct volume (cerebral infarct) | lifespan (wildtype mice) | inhibition to ion channels (ion channels) | Safety Index (28-day toxicity studies) | toxicity (28-day toxicity studies) | half-life [5] | inhibition to CYP (CYP) | short term memory in the Morris Water Maze [6]
O=C(Oc1ccc([N+](=O)[O-])cc1[N+](=O)[O-])N1CCOCC1 [II-38, 2,4-Dinitrophenyl morpholine-4-carboxylate] | stable | no significant hydrolysis; also recorded: did not show significant hydrolysis; also recorded: no evidence of 2,4-DNP formation | cleaved in the plasma to produce 2,4-DNP at a slow rate | stable |  |  |  |  |  |  |  | 
O=[N+]([O-])c1ccc(O)c([N+](=O)[O-])c1 [2,4-DNP, 2,4-dinitrophenol] |  |  |  |  | 40% | living longer than untreated mice | no inhibition | ≥ 10 × | not toxic | ~6 h | no inhibition | strikingly improved

Source: patent US11406642B2, “DNP and DNP prodrug treatment of neuromuscular, neurodegenerative, autoimmune, developmental, traumatic brain injury, concussion, dry eye disease, hearing loss and/or metabolic diseases” (priority 2016, dated 2022)
